# Test results from US6737383B1, “Herbicidal oxadiazolidines” (priority 1999, dated 2004).
# Key:
# [1] = test system: duck salad; assay: Test B flood test duck salad; assay type: in vivo, Heteranthera limosa
# Summary of the method: (§1)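 Each value is a visual injury score relative to controls, with 10 meaning complete control and 0 no effect. Evaluation took place twelve to sixteen days after the 2-leaf-stage plants were treated and kept in the greenhouse.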
# [2] = test system: bedstraw; assay: Test B pre/postemergence bedstraw; assay type: in vivo, Galium aparine
# Summary of the method: (§2)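 Herbicidal effect was estimated by eye on a ten-point control scale after plants spent twelve to sixteen days in a greenhouse following soil or foliar treatment. Foliar sprays targeted plants at one to four leaves; all doses were formulated in a non-phytotoxic solvent with surfactant.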
# [3] = test system: wild oat; assay: Test B pre/postemergence wild oat; assay type: in vivo, Avena fatua
# Summary of the method: as §2
# [4] = test system: wheat; assay: Test B pre/postemergence wheat; assay type: in vivo, Triticum aestivum
# Summary of the method: as §2
# [5] = test system: cocklebur; assay: Test B pre/postemergence cocklebur; assay type: in vivo, Xanthium strumarium
# Summary of the method: as §2
# [6] = test system: giant foxtail; assay: Test B pre/postemergence giant foxtail; assay type: in vivo, Setaria faberii
# Summary of the method: as §2
# [7] = test system: smallflower flatsedge; assay: Test B flood test smallflower flatsedge; assay type: in vivo, Cyperus difformis
# Summary of the method: as §1
# [8] = test system: velvetleaf; assay: Test B pre/postemergence velvetleaf; assay type: in vivo, Abutilon theophrasti
# Summary of the method: as §2
# [9] = test system: soybean; assay: Test B pre/postemergence soybean; assay type: in vivo, Glycine max
# Summary of the method: as §2
# [10] = test system: surinam grass; assay: Test B pre/postemergence surinam grass; assay type: in vivo, Brachiaria decumbens
# Summary of the method: as §2
# [11] = test system: rape; assay: Test B pre/postemergence rape; assay type: in vivo, Brassica napus
# Summary of the method: as §2
# [12] = test system: rice; assay: Test B flood test rice; assay type: in vivo, Oryza sativa
# Summary of the method: as §1
# [13] = test system: pigweed; assay: Test B pre/postemergence pigweed; assay type: in vivo, Amaranthus retroflexus
# Summary of the method: as §2
# [14] = test system: purple nutsedge; assay: Test B pre/postemergence purple nutsedge; assay type: in vivo, Cyperus rotundus
# Summary of the method: as §2
# [15] = test system: sugar beet; assay: Test B pre/postemergence sugar beet; assay type: in vivo, Beta vulgaris
# Summary of the method: as §2
# [16] = test system: corn; assay: Test B pre/postemergence corn; assay type: in vivo, Zea mays
# Summary of the method: as §2
# [17] = Postemergence, Rate 1000 g/ha, scale 0 to 10 (0 no effect, 10 complete control)
# [18] = Rate 125 g/ha, Postemergence section (flood test species), scale 0 to 10, 0 no effect, 10 complete control
# [19] = Rate 500 g/ha, Postemergence section of Table B, 0 to 10 scale (0 no effect, 10 complete control)
# [20] = flood test, listed under Postemergence, Rate 250 g/ha, scale 0 to 10, 0 no effect, 10 complete control
# [21] = Postemergence, Rate 250 g/ha, scale 0 to 10, 0 no effect, 10 complete control
# [22] = Preemergence, Rate 125 g/ha, scale 0 to 10 (0 no effect, 10 complete control)
# [23] = Preemergence, Rate 250 g/ha, scale of 0 to 10 where 0 is no effect and 10 is complete control
# [24] = Preemergence, Rate 500 g/ha, scale 0 (no effect) to 10 (complete control)
# [25] = Rate 125 g/ha, Postemergence, scale 0 to 10, 0 no effect, 10 complete control
# [26] = Rate 500 g/ha, Postemergence, 0 to 10 scale (0 no effect, 10 complete control)
# [27] = Rate 1000 g/ha, Preemergence, scale 0 to 10 (0 no effect, 10 complete control)
smiles,measurement,setting,value
CC(C)N(C(=O)n1oc(=O)n(-c2ccc(OC(F)(F)F)cc2)c1=O)C1=CCOCC1 [Compound 13],Ducksalad plant response rating,[1]; [17],0
same,Ducksalad plant response rating,[1]; [18],0
same,Ducksalad plant response rating,[1]; [19],0
same,Ducksalad plant response rating,[1]; [20],0
same,Bedstraw plant response rating,[2]; [21],0
same,Bedstraw plant response rating,[2]; [17],0
same,"Plant response rating, Bedstraw",[2]; [22],0
same,"Plant response rating, Bedstraw",[2]; [23],0
same,Bedstraw plant response rating,[2]; [24],0
same,Bedstraw plant response rating,[2]; [25],0
same,Bedstraw plant response rating,[2]; [26],0
same,"Plant response rating, Bedstraw",[2]; [27],3
same,Wild oats plant response rating,[3]; [21],0
same,Wild oats plant response rating,[3]; [17],2
same,"Plant response rating, Wild oats",[3]; [22],0
same,"Plant response rating, Wild oats",[3]; [23],0
same,Wild oats plant response rating,[3]; [24],2
same,Wild oats plant response rating,[3]; [25],0
same,"Plant response rating, Wild oats",[3]; [27],7
same,Wheat plant response rating,[4]; [21],0
same,Wheat plant response rating,[4]; [17],0
same,"Plant response rating, Wheat",[4]; [22],0
same,"Plant response rating, Wheat",[4]; [23],0
same,Wheat plant response rating,[4]; [24],0
same,Wheat plant response rating,[4]; [25],0
same,"Plant response rating, Wheat",[4]; [27],0
same,Cocklebur plant response rating,[5]; [21],0
same,Cocklebur plant response rating,[5]; [17],0
same,"Plant response rating, Cocklebur",[5]; [22],0
same,"Plant response rating, Cocklebur",[5]; [23],0
same,Cocklebur plant response rating,[5]; [24],0
same,Cocklebur plant response rating,[5]; [25],0
same,Cocklebur plant response rating,[5]; [26],0
same,Giant foxtail plant response rating,[6]; [21],2
same,Giant foxtail plant response rating,[6]; [17],7
same,"Plant response rating, Giant foxtail",[6]; [22],3
same,"Plant response rating, Giant foxtail",[6]; [23],8
same,Giant foxtail plant response rating,[6]; [24],8
same,Giant foxtail plant response rating,[6]; [25],0
same,Giant foxtail plant response rating,[6]; [26],7
same,"Plant response rating, Giant foxtail",[6]; [27],8
same,S. Flatsedge plant response rating,[7]; [17],0
same,S. Flatsedge plant response rating,[7]; [18],0
same,S. Flatsedge plant response rating,[7]; [20],0
same,Velvetleaf plant response rating,[8]; [21],0
same,Velvetleaf plant response rating,[8]; [17],0
same,"Plant response rating, Velvetleaf",[8]; [22],0
same,"Plant response rating, Velvetleaf",[8]; [23],0
same,Velvetleaf plant response rating,[8]; [24],0
same,Velvetleaf plant response rating,[8]; [25],0
same,"Plant response rating, Velvetleaf",[8]; [27],2
same,Soybean plant response rating,[9]; [21],2
same,Soybean plant response rating,[9]; [17],3
same,"Plant response rating, Soybean",[9]; [22],0
same,"Plant response rating, Soybean",[9]; [23],0
same,Soybean plant response rating,[9]; [24],0
same,Soybean plant response rating,[9]; [25],1
same,"Plant response rating, Soybean",[9]; [27],0
same,B. signalgrass plant response rating,[10]; [21],2
same,B. signalgrass plant response rating,[10]; [17],6
same,"Plant response rating, B. signalgrass",[10]; [22],0
same,"Plant response rating, B. signalgrass",[10]; [23],2
same,B. signalgrass plant response rating,[10]; [24],4
same,B. signalgrass plant response rating,[10]; [25],0
same,B. signalgrass plant response rating,[10]; [26],5
same,"Plant response rating, B. signalgrass",[10]; [27],8
same,Rape plant response rating,[11]; [21],0
same,Rape plant response rating,[11]; [17],1
same,"Plant response rating, Rape",[11]; [22],0
same,"Plant response rating, Rape",[11]; [23],0
same,Rape plant response rating,[11]; [24],0
same,Rape plant response rating,[11]; [25],0
same,Rape plant response rating,[11]; [26],1
same,"Plant response rating, Rape",[11]; [27],0
same,Rice plant response rating,[12]; [17],0
same,Rice plant response rating,[12]; [18],0
same,Rice plant response rating,[12]; [19],0
same,Rice plant response rating,[12]; [20],0
same,Redroot pigweed plant response rating,[13]; [21],0
same,Redroot pigweed plant response rating,[13]; [17],0
same,"Plant response rating, Redroot pigweed",[13]; [22],0
same,"Plant response rating, Redroot pigweed",[13]; [23],0
same,Redroot pigweed plant response rating,[13]; [24],0
same,Redroot pigweed plant response rating,[13]; [25],0
same,Redroot pigweed plant response rating,[13]; [26],0
same,"Plant response rating, Redroot pigweed",[13]; [27],3
same,Nutsedge plant response rating,[14]; [21],0
same,Nutsedge plant response rating,[14]; [17],0
same,"Plant response rating, Nutsedge",[14]; [22],0
same,"Plant response rating, Nutsedge",[14]; [23],0
same,Nutsedge plant response rating,[14]; [24],0
same,Nutsedge plant response rating,[14]; [25],0
same,Nutsedge plant response rating,[14]; [26],0
same,"Plant response rating, Nutsedge",[14]; [27],0
same,Sugarbeets plant response rating,[15]; [21],0
same,Sugarbeets plant response rating,[15]; [17],0
same,"Plant response rating, Sugarbeets",[15]; [22],0
same,"Plant response rating, Sugarbeets",[15]; [23],0
same,Sugarbeets plant response rating,[15]; [24],0
same,Sugarbeets plant response rating,[15]; [25],0
same,"Plant response rating, Sugarbeets",[15]; [27],0
same,Corn plant response rating,[16]; [21],0
same,Corn plant response rating,[16]; [17],0
same,"Plant response rating, Corn",[16]; [22],0
same,"Plant response rating, Corn",[16]; [23],0
same,Corn plant response rating,[16]; [24],0
same,Corn plant response rating,[16]; [25],0
same,Corn plant response rating,[16]; [26],0
same,"Plant response rating, Corn",[16]; [27],0
